Source: patent US5594024A, “Centrally actig substituted phenylazacycloalkanes” (priority 1995, dated 1997)
“Also recorded” adds a separate entry of the source.

Key:
dopamine autoreceptors = assay: GBL-model (DA synthesis rate; presynaptic dopamine autoreceptors); assay type: in vivo, rat
Description: The effects on DOPA accumulation in the GBL-model is considered to reflect an event at the presynaptic dopamine autoreceptors (for further details, see Svensson et al., Nunyn-Schmiedeberg's Arch. Pharm., 334, 234(1986)).

striatal DA release = assay: In vivo brain microdialysis in rat striatum (conscious rats); details: for Microdialysis in rat striatum, 5-HIAA / Microdialysis in rat striatum, DA / Microdialysis in rat striatum, DOPAC / Microdialysis in rat striatum, HVA: 50 μmol/kg s.c.
Description: In the experiments with habituated rats no NSD was administered and the animals were killed one hour after drug administration. […] The levels were expressed as % of controls (DOPAC and 5-HIAA see Table 3). The in vivo brain microdialysis experiments were performed in conscious rats as described by Waters et al., Eur. J. Pharm., 187, 425-34 (1990).
The dialysis was performed in conscious rats implanted with a dialysis probe (Carnegie Medicin, Stockholm) in the caudate. […] The perfusion media was a Ringer solution with a Ca2+ concentration of 1.2 mM. The perfusion rate was 2.0 μL/min and samples were collected every 20 minutes and analyzed on HPLC/EC. Data are expressed as % of controls, means ±SEM, n=4.

SMILES: CCCN1CCC[C@@H](c2cccc(C#N)c2)C1 [S-(-)-34, S-(-)-3-(3-Cyanophenyl-N-n-propyl)piperidine]
- blockade of the apomorphine effect in the GBL-model (dopamine autoreceptors; 100 μmol/kg, sc): only a partial blockade
- effect per se in the GBL-model (dopamine autoreceptors; 200 μmol/kg, sc): inactive per se
- blockade of the apomorphine effect in the GBL-model (dopamine autoreceptors; 200 μmol/kg, sc, 40 minutes): blocked the effect of apomorphine
- blockade of apomorphine in the GBL-model (in words) (dopamine autoreceptors; rat, in vivo): blocks apomorphine in the GBL-model
- Microdialysis in rat striatum, 5-HIAA (striatal DA release; 0 min): 100 % of control
- Microdialysis in rat striatum, DA (striatal DA release; 0 min): 100 % of control
- Microdialysis in rat striatum, DOPAC (striatal DA release; 0 min): 100 % of control
- Microdialysis in rat striatum, HVA (striatal DA release; 0 min): 100 % of control
- Microdialysis in rat striatum, 5-HIAA (striatal DA release; 20 min): 110 % of control
- Microdialysis in rat striatum, DA (striatal DA release; 20 min): 180 % of control
- Microdialysis in rat striatum, DOPAC (striatal DA release; 20 min): 180 % of control
- Microdialysis in rat striatum, HVA (striatal DA release; 20 min): 140 % of control
- Microdialysis in rat striatum, 5-HIAA (striatal DA release; 40 min): 115 % of control
- Microdialysis in rat striatum, DA (striatal DA release; 40 min): 240 % of control
- Microdialysis in rat striatum, DOPAC (striatal DA release; 40 min): 250 % of control
- Microdialysis in rat striatum, HVA (striatal DA release; 40 min): 200 % of control
- Microdialysis in rat striatum, 5-HIAA (striatal DA release; 60 min): 120 % of control
- Microdialysis in rat striatum, DA (striatal DA release; 60 min): 280 % of control
- Microdialysis in rat striatum, DOPAC (striatal DA release; 60 min): 295 % of control
- Microdialysis in rat striatum, HVA (striatal DA release; 60 min): 250 % of control
- Microdialysis in rat striatum, 5-HIAA (striatal DA release; 80 min): 115 % of control
- Microdialysis in rat striatum, DA (striatal DA release; 80 min): 300 % of control
- Microdialysis in rat striatum, DOPAC (striatal DA release; 80 min): 300 % of control
- Microdialysis in rat striatum, HVA (striatal DA release; 80 min): 280 % of control
- Microdialysis in rat striatum, 5-HIAA (striatal DA release; 100 min): 115 % of control
- Microdialysis in rat striatum, DA (striatal DA release; 100 min): 280 % of control
- Microdialysis in rat striatum, DOPAC (striatal DA release; 100 min): 295 % of control
- Microdialysis in rat striatum, HVA (striatal DA release; 100 min): 300 % of control
- Microdialysis in rat striatum, 5-HIAA (striatal DA release; 120 min): 110 % of control
- Microdialysis in rat striatum, DA (striatal DA release; 120 min): 275 % of control
- Microdialysis in rat striatum, DOPAC (striatal DA release; 120 min): 280 % of control
- Microdialysis in rat striatum, HVA (striatal DA release; 120 min): 310 % of control
- Microdialysis in rat striatum, 5-HIAA (striatal DA release; 140 min): 105 % of control
- Microdialysis in rat striatum, DA (striatal DA release; 140 min): 225 % of control
- Microdialysis in rat striatum, DOPAC (striatal DA release; 140 min): 260 % of control
- Microdialysis in rat striatum, HVA (striatal DA release; 140 min): 300 % of control
- Microdialysis in rat striatum, 5-HIAA (striatal DA release; 160 min): 110 % of control
- Microdialysis in rat striatum, DA (striatal DA release; 160 min): 200 % of control
- Microdialysis in rat striatum, DOPAC (striatal DA release; 160 min): 250 % of control
- Microdialysis in rat striatum, HVA (striatal DA release; 160 min): 305 % of control
- Microdialysis in rat striatum, 5-HIAA (striatal DA release; 180 min): 110 % of control
- Microdialysis in rat striatum, DA (striatal DA release; 180 min): 190 % of control
- Microdialysis in rat striatum, DOPAC (striatal DA release; 180 min): 230 % of control
- Microdialysis in rat striatum, HVA (striatal DA release; 180 min): 280 % of control
- Microdialysis in rat striatum, 5-HIAA (striatal DA release; 200 min): 110 % of control
- Microdialysis in rat striatum, DA (striatal DA release; 200 min): 180 % of control
- Microdialysis in rat striatum, DOPAC (striatal DA release; 200 min): 215 % of control
- Microdialysis in rat striatum, HVA (striatal DA release; 200 min): 220 % of control
- Microdialysis in rat striatum, 5-HIAA (striatal DA release; 220 min): 100 % of control
- Microdialysis in rat striatum, DA (striatal DA release; 220 min): 160 % of control
- Microdialysis in rat striatum, DOPAC (striatal DA release; 220 min): 190 % of control
- Microdialysis in rat striatum, HVA (striatal DA release; 220 min): 230 % of control
- duration for the increase in DOPAC and HVA (striatal DA release; 50 μmol/kg, sc): at least 4 hours
- duration of the effect (DA release) (striatal DA release; 50 μmol/kg, sc): approximately 2.5 hours
- levels of 5-HIAA, microdialysis (in words) (striatal DA release; 50 μmol/kg, sc): No consistent changes in the levels of 5-HIAA; also recorded: failed to affect brain levels of 5-HIAA
